Results on one compound are retold here after patent US20120029003A1, “GALECTIN-3 AND STATIN THERAPY” (BG Medicine, Inc., priority 2010, published 2012).

The test system of one assay is heart failure patients. To be noted: unselected heart failure patients; CORONA and GISSI-HF trials; cited from earlier work.
In assay [1] the test system is patients with chronic heart failure (HF). The experiment in a line: Clinical trial of rosuvastatin vs placebo in chronic heart failure, analysed by baseline galectin-3 category. The class given is in vivo, human. An excerpt:
A clinical trial enrolled patients with chronic heart failure (HF) (New York Heart Association functional class II, III or IV) and with left ventricular ejection fraction less than or equal to 40% (less than or equal to 35% for patients in New York Heart Association functional class II). The design and primary results of the trial are reported in published literature [J. Kjekshus et al., “Rosuvastatin in Older Patients with Systolic Heart Failure.” N Engl J. Med. 2007 Nov. 29; 357(22):2248-61]. Patients were randomly assigned to receive 10 milligrams of rosuvastatin or placebo per day. Of the patients in the trial, a subset of 1,462 subjects also participated in a sub-study in which blood was collected at baseline, defined as the time of enrollment in the trial. Baseline galectin-3 levels were evaluated in these […] subjects.
Blood plasma samples were drawn at baseline from participants in a non-fasting state. All samples were stored at −80° C. Plasma galectin-3 levels were determined on these plasma specimens using a commercial enzyme-linked immunosorbent assay (BGM Galectin-3 Assay; BG Medicine, Waltham, Mass.) according to the manufacturer's instructions.
Determination of galectin-3 concentration in serum samples was assessed using ELISA kits (BGM Galectin-3 Assay; BG Medicine Inc., Waltham, Mass., USA). The assay sensitivity (lowest concentration different from zero) was 0.96 ng/mL. Intra- and inter-assay variations were less than 8% and 10% respectively.
For the main objective of investigating the effects of rosuvastatin treatment according to baseline galectin-3 level, galectin-3 categories were defined based on the median baseline value across all 1,462 subjects for whom a galectin-3 measurement was available. For each of six endpoints, a formal interaction test was conducted within a Cox proportional hazards model comprising treatment group (binary variable), galectin-3 category (dichotomous variable), and the interaction term. Subsequently, Cox proportional hazards models were used to estimate the hazard ratios (HRs) and 95% confidence intervals (CIs) comparing rosuvastatin and placebo treatments by galectin-3 categories. Fully adjusted models included the following 11 covariates, all evaluated at baseline: age (per year), gender, LVEF (per unit), NYHA class (due to the small number of subjects with class IV, class III and IV were combined), body mass index (BMI) (per unit), diabetes mellitus (yes/no), intermittent claudication (yes/no), heart rate (per unit), estimated glomerular filtration rate (eGFR) (per unit), the ratio of apolipoprotein B to apolipoprotein A1, and N-terminal B-type natriuretic peptide (NT-proBNP) (the variable NT-proBNP was logarithmically transformed using base e). Incident event rates were analyzed using Poisson regression. Baseline characteristics were compared by galectin-3 category using Student's t-test for variables expressed as means and standard deviation. All P-values are two two-tailed. All analyses were performed with SAS software, version 9.1 (SAS Institute), or R software, version 2.

Structures are written as SMILES.

Take `CC(C)c1nc(N(C)S(C)(=O)=O)nc(-c2ccc(F)cc2)c1/C=C/[C@@H](O)C[C@@H](O)CC(=O)O` [Rosuvastatin, rosuvastatin]: in the assay with heart failure patients, the “clinical benefit of statin therapy in heart failure patients” value is “did not demonstrate a significant clinical benefit”. For the same compound, the “Rate of subjects experiencing the primary outcome, Rosuvastatin rate” value is 15.1 per 100 person-years of follow-up in assay [1] (Galectin-3 > 19.0 ng/mL, 728 subjects) and 7.8 per 100 person-years of follow-up in assay [1] (Galectin-3 ≦ 19.0 ng/mL, 734 subjects). The “hazard ratio (HR) for the primary endpoint, rosuvastatin compared to placebo” value in assay [1] (baseline galectin-3 >19.0 ng/mL (N=728), 10 mg rosuvastatin per day, adjusted HR) amounted to 1.07. Besides, the “rate of primary events” value in assay [1] (baseline galectin-3 >19.0 ng/mL, rosuvastatin group, 10 mg per day) is 15.1 events per 100 patient-years; in assay [1] (baseline galectin-3 less than or equal to 19.0 ng/mL, subjects randomized to rosuvastatin 10 mg per day), 7.8 events per 100 patient-years. Moreover, the “hazard ratio (HR) for the primary endpoint (earlier of cardiovascular death, non-fatal myocardial infarction or non-fatal stroke), rosuvastatin compared to placebo” value in assay [1] (baseline galectin-3 less than or equal to 19.0 ng/mL (N=734), 10 mg rosuvastatin per day, adjusted for 11 clinical and biochemical covariates) is 0.65. The “difference in rate of primary events, rosuvastatin compared to placebo” value in assay [1] (baseline galectin-3 less than or equal to 19.0 ng/mL, 7.8 vs 11.2 events per 100 patient-years) amounted to 30.4%.
